# Source: ChEMBL document CHEMBL5126595, “Identification and anti-tumor evaluation of 3-acyl-indol-based 2,4-diarylaminopyrimidine analogues as potent ALK inhibitors capable of overcoming drug-resistant mutants” (Eur J Med Chem, 2022)
# Active and inactive are the calls of the source. The rule behind the calls is not given here.
# Assays:
# NCI-H2228 [1] = experiment: Induction of apoptosis in human NCI-H2228 cells assessed as necrotic cells at 100 nM incubated for 48 hrs by AnnexinV-FITC/propidium iodide staining based flow cytometry analysis (reference value: 0.55 %); format: functional
# NCI-H2228 [2] = experiment: Induction of cell cycle arrest in human NCI-H2228 cells assessed as decrease in S phase cells at 25 nM incubated for 48 hrs by PI/RNase staining based flow cytometry analysis (reference value: 34.90 %); format: functional; set-up: scale not given: the % may be the effect or the level left
# HCT-116 = experiment: cells; conditions: Homo sapiens, HCT-116, 72 h
# Description: Antiproliferative activity against human HCT-116 cells assessed as inhibition of cell growth incubated for 72 hrs by MTT assay
# NCI-H2228 [3] = experiment: Induction of apoptosis in human NCI-H2228 cells assessed as early apoptotic cells at 100 nM incubated for 48 hrs by AnnexinV-FITC/propidium iodide staining based flow cytometry analysis (reference value: 2.45 %); format: functional
# NCI-H2228 [4] = experiment: Induction of apoptosis in human NCI-H2228 cells assessed as early apoptotic cells at 25 nM incubated for 48 hrs by AnnexinV-FITC/propidium iodide staining based flow cytometry analysis (reference value: 2.45 %); format: functional
# [5] = Potency index, ratio of test compound IC50 to ceritinib IC50 antiproliferative activity […] EML4-ALK-G1202R cells assessed as inhibition of cell growth incubated for 72 hrs by MTT assay; format: functional
# [6] = biological target: T1, ALK tyrosine kinase receptor (Homo sapiens, UniProt Q9UM73); experiment: Inhibition of ALK downstream signalling in human NCI-H2228 cells assessed as reduction in AKT level measured after 24 hrs by Western blot analysis; format: cell-based; conditions: dose 25-100 nM, DDE = dose-dependent effect
# [7] = Metabolic stability in Sprague-Dawley rat liver microsomes assessed as half-life at 10 uM preincubated for 5 mins in the presence of NADPH followed by microsomal addition and measured upto 60 mins by HPLC analysis; format: ADME, Microsome; conditions: time < 65 min
# [8] = MRT in Sprague-Dawley rat at 2 mg/kg, iv by LC-MS/MS analysis; format: ADME, organism-based; conditions: in vivo
# NCI-H2228 [9] = experiment: Antitumor activity against human NCI-H2228 cells xenografted in BALB/c nude mouse assessed as tumor growth inhibition at 50 mg/kg, IG administered every 2 days for 7 times relative to control; format: functional; conditions: NCI-H2228, po, 336 h, time 14 day, read-out: TGI
# [10] = Half-life in Sprague-Dawley rat at 2 mg/kg, iv by LC-MS/MS analysis; format: ADME, organism-based; conditions: in vivo
# [11] = AUC (0 to t) in Sprague-Dawley rat at 2 mg/kg, iv by LC-MS/MS analysis; format: ADME, organism-based; set-up: dose 2 mg/kg, route iv; conditions: in vivo
# NCI-H2228 [12] = experiment: Induction of apoptosis in human NCI-H2228 cells assessed as appearance of apoptotic bodies at 25 to 100 nM incubated for 48 hrs by Hoechst 33342 staining based fluorescence microscopic analysis; format: functional, cell-based; conditions: dose 25-100 nM
# [13] = biological target: ALK tyrosine kinase receptor (Homo sapiens, UniProt Q9UM73, L1196M); experiment: Inhibition of N-terminal GST-tagged human ceritinib-resistant ALK L1196M mutant (1058 to 1620 residues) cytoplasmic domain expressed in baculovirus infected Sf21 cells incubated for 1 hrs in the presence of ATP by mobility shift assay
# NCI-H2228 [14] = experiment: Inhibition of cell migration in human NCI-H2228 cells at 10 nM measured at 48 hrs by inverted microscopic based cell scratch assay relative to control; format: functional
# NCI-H1581 = experiment: Antiproliferative activity against human NC-H1581 cells assessed as inhibition of cell growth incubated for 72 hrs by MTT assay; format: functional, cell-based; conditions: NCI-H1581, 72 h
# NCI-H2228 [15] = experiment: Induction of cell cycle arrest in human NCI-H2228 cells assessed as decrease in G2 phase cells at 50 nM incubated for 48 hrs by PI/RNase staining based flow cytometry analysis (reference value: 15.38 %); format: functional; set-up: scale not given: the % may be the effect or the level left
# [16] = biological target: Epidermal growth factor receptor (Homo sapiens, UniProt P00533); experiment: Inhibition of human EGFR (669 to 1210 residues) cytoplasmic domain expressed in baculovirus infected Sf21 cells incubated for 1 hrs in the presence of ATP by mobility shift assay
# [17] = Half-life in Sprague-Dawley rat at 10 mg/kg, po by LC-MS/MS analysis; format: ADME, organism-based; conditions: in vivo
# NCI-H2228 [18] = experiment: Inhibition of cell migration in human NCI-H2228 cells measured at 24 to 48 hrs by inverted microscopic based cell scratch assay; format: functional; conditions: dose 2.5-10 nM, time 24-48 hrs, DDE = dose-dependent effect
# [19] = Cmax in Sprague-Dawley rat at 10 mg/kg, po by LC-MS/MS analysis; format: ADME, organism-based; set-up: dose 10 mg/kg, route po; conditions: in vivo
# A549 = experiment: Antiproliferative activity against EGFR positive human A549 cells assessed as inhibition of cell growth incubated for 72 hrs by MTT assay; format: functional, cell-based; conditions: A549, 72 h
# NCI-H2228 [20] = experiment: Inhibition of colony formation in human NCI-H2228 cells assessed as reduction in colony area at 50 nM incubated for 3 day by crystal violet staining based assay; format: functional; conditions: NCI-H2228, 72 h
# NCI-H2228 [21] = experiment: Induction of apoptosis in human NCI-H2228 cells assessed as solidified nuclei at 25 to 100 nM incubated for 48 hrs by Hoechst 33342 staining based fluorescence microscopic analysis; format: functional, cell-based; conditions: dose 25-100 nM
# [22] = Metabolic stability in Sprague-Dawley rat liver microsomes assessed as parent compound remaining measured upto 60 mins by HPLC analysis; format: ADME, Microsome; conditions: read-out: Stability
# NCI-H2228 [23] = experiment: Induction of cell cycle arrest in human NCI-H2228 cells assessed as increase in G1 phase cells at 25 nM incubated for 48 hrs by PI/RNase staining based flow cytometry analysis (reference value: 49.72 %); format: functional
# Hep 3B2 = experiment: cells; conditions: Homo sapiens, Hep3B, 72 h
# Description: Antiproliferative activity against human Hep3B cells assessed as inhibition of cell growth incubated for 72 hrs by MTT assay
# [24] = AUC (0 to infinity) in Sprague-Dawley rat at 10 mg/kg, po by LC-MS/MS analysis; format: ADME, organism-based; set-up: time infinity, dose 10 mg/kg, route po; conditions: in vivo
# [25] = biological target: T1, ALK tyrosine kinase receptor; experiment: Inhibition of ALK downstream signalling in human NCI-H2228 cells assessed as reduction in phosphorylated ERK level measured after 24 hrs by Western blot analysis; format: cell-based; conditions: dose 25-100 nM, DDE = dose-dependent effect
# MCF7 = experiment: cells; conditions: Homo sapiens, MCF7, 72 h
# Description: Antiproliferative activity against human MCF7 cells assessed as inhibition of cell growth incubated for 72 hrs by MTT assay
# [26] = AUC (0 to t) in Sprague-Dawley rat at 10 mg/kg, po by LC-MS/MS analysis; format: ADME, organism-based; set-up: dose 10 mg/kg, route po; conditions: in vivo
# NCI-H2228 [27] = experiment: Induction of apoptosis in human NCI-H2228 cells assessed as orange red fluorescence at 25 to 100 nM incubated for 48 hrs by AO/EB staining based fluorescence microscopic analysis; format: functional, cell-based; conditions: dose 25-100 nM
# NCI-H2228 [28] = experiment: Induction of cell cycle arrest in human NCI-H2228 cells assessed as decrease in G2 phase cells at 25 nM incubated for 48 hrs by PI/RNase staining based flow cytometry analysis (reference value: 15.38 %); format: functional; set-up: scale not given: the % may be the effect or the level left
# [29] = Antiproliferative activity […] EML4-ALK cells assessed as inhibition of cell growth incubated for 72 hrs by MTT assay; format: functional, cell-based
# NCI-H2228 [30] = experiment: Inhibition of cell migration in human NCI-H2228 cells at 10 nM measured at 24 hrs by inverted microscopic based cell scratch assay relative to control; format: functional
# NCI-H2228 [31] = experiment: Inhibition of cell migration in human NCI-H2228 cells at 2.5 to 10 nM by inverted microscopic based cell scratch assay; format: functional; conditions: dose 2.5-10 nM, time 24-48 hrs, TDE = time-dependent effect
# T1 sequence (Q9UM73 19-1620 limits assumed): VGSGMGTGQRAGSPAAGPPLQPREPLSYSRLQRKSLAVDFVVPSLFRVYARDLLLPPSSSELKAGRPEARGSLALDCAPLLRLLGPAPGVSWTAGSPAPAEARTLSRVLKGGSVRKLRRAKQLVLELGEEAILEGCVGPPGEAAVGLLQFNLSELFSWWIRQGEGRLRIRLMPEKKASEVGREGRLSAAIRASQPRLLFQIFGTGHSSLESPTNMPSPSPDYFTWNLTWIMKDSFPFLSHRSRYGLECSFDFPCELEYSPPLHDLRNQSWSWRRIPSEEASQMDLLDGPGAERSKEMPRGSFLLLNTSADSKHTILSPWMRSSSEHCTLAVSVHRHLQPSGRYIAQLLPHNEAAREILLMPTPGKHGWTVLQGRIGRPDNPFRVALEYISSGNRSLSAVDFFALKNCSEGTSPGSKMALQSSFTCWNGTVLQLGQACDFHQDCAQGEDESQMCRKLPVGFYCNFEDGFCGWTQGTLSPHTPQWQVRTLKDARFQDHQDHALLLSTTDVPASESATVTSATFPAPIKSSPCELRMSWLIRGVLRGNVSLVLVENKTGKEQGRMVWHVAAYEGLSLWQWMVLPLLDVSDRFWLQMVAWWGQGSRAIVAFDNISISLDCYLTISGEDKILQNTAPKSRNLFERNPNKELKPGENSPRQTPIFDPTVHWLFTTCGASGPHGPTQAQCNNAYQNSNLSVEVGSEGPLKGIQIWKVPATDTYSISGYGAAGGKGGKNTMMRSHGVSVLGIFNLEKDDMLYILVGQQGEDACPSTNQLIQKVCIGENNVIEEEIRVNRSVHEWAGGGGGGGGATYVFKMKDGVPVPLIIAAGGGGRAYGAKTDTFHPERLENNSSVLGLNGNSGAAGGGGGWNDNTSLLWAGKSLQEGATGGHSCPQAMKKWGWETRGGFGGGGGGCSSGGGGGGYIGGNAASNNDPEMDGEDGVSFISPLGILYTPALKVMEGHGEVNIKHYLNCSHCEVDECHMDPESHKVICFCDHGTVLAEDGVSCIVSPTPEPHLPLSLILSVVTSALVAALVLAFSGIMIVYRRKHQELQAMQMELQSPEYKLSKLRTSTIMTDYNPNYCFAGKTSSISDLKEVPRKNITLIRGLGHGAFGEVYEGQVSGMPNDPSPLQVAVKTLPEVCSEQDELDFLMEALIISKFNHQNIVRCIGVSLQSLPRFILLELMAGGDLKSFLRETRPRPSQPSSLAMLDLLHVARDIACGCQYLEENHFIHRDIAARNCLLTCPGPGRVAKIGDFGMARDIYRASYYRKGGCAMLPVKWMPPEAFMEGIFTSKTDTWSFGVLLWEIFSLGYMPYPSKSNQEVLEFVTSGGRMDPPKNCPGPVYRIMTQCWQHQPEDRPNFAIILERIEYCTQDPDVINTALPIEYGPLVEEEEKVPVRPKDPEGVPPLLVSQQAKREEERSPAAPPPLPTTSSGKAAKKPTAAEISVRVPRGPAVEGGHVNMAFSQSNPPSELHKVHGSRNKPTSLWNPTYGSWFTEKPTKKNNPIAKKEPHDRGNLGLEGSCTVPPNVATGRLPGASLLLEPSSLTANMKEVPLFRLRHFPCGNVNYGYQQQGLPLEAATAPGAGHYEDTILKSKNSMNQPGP
# Chain of Epidermal growth factor receptor (P00533 whole entry, the tested form may be a part): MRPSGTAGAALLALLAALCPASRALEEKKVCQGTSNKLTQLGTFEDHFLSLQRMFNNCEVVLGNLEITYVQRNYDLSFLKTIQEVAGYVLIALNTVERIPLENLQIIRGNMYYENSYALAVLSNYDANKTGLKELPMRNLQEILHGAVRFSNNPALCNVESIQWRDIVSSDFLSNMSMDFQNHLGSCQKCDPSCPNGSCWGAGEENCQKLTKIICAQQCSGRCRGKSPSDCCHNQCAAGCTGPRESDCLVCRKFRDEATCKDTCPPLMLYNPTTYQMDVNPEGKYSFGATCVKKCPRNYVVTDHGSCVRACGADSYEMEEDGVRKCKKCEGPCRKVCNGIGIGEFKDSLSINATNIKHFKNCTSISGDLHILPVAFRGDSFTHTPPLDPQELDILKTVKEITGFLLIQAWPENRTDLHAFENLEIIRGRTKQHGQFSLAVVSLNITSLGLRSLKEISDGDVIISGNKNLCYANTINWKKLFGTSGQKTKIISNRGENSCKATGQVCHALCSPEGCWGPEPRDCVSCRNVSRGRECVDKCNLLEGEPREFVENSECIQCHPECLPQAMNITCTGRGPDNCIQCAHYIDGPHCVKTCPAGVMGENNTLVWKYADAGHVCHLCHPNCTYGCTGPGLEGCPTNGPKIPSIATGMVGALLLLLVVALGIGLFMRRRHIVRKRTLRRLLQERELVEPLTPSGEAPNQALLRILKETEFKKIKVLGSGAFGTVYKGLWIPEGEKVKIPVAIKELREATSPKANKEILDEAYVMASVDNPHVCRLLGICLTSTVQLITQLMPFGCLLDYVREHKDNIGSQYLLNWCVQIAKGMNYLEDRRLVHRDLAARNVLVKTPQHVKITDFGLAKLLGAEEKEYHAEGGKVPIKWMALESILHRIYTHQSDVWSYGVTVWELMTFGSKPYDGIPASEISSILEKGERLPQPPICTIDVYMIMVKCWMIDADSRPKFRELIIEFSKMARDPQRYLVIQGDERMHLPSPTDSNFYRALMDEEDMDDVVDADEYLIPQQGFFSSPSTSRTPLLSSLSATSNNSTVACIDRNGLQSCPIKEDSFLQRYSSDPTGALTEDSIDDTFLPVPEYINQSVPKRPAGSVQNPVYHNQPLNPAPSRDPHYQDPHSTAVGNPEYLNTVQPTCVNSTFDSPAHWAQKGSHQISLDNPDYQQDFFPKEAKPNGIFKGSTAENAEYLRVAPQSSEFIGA
# Chain of ALK tyrosine kinase receptor (Homo sapiens, UniProt Q9UM73, L1196M) (Q9UM73 19-1620 L1196M limits assumed): as the sequence (Q9UM73 19-1620 limits assumed) above, with L1178M counted along it
compound,measurement,setting,value
CNC(=O)c1ccccc1Nc1nc(Nc2ccc3c(C(=O)N(C)C)c(C)[nH]c3c2)ncc1Cl,Activity,NCI-H2228 [1],1.71%
same,Activity,NCI-H2228 [2],34.73%
same,IC50,HCT-116,1340 nM
same,Activity,NCI-H2228 [3],8.7%
same,Activity,NCI-H2228 [4],3.73%
same,Ratio IC50,[5],61
same,inhibition,[6],Dde
same,half-life at 10 µM,[7],0.603 h
same,MRT,[8],3.5 h
same,inhibition in vivo at 50 mg/kg,NCI-H2228 [9],93.5%
same,half-life,[10],2.5 h
same,AUC(0-t),[11],879 ng·h/mL
same,Activity,NCI-H2228 [12],Active
same,IC50,[13],3.7 nM
same,inhibition at 0.01 µM,NCI-H2228 [14],4.5%
same,IC50,NCI-H1581,957 nM
same,Activity,NCI-H2228 [15],13.28%
same,IC50,[16],> 1000 nM
same,half-life,[17],4.1 h
same,inhibition,NCI-H2228 [18],Dde
same,Cmax,[19],346 ng/mL
same,IC50,A549,2390 nM
same,inhibition at 0.05 µM,NCI-H2228 [20],50%
same,Activity,NCI-H2228 [21],Active
same,remaining at 1 h,[22],90%
same,Activity,NCI-H2228 [23],53.03%
same,IC50,Hep 3B2,59 nM
same,AUC(0-inf),[24],1760 ng·h/mL
same,inhibition,[25],Dde
same,IC50,MCF7,2160 nM
same,AUC(0-t),[26],1720 ng·h/mL
same,Activity,NCI-H2228 [27],Active
same,Activity,NCI-H2228 [28],12.23%
same,IC50,[29],21 nM
same,inhibition at 0.01 µM,NCI-H2228 [30],3.6%
same,inhibition,NCI-H2228 [31],Tde
